Values quoted from earlier work, collected in patent US20110236473A1, “STABLE ALISKIREN FORMULATIONS” (Sanovel Ilac Sanayi Ve Ticaret Anonim Sirketi, priority 2010, published 2011).
Like-named read-outs stand apart in the source and are kept apart here.

Measured: solubility

COCCCOc1cc(C[C@@H](C[C@H](N)[C@@H](O)C[C@@H](C(=O)NCC(C)(C)C(N)=O)C(C)C)C(C)C)ccc1OC [Aliskiren hemifumarate, (2S,4S,5S,7S)-5-amino-N-(2-carbamoyl-2-methylpropyl)-4-hydroxy-2-isopropyl-7-[4-methoxy-3-(3-methoxypropoxy)benzyl]-8-methylnonamide]
freely soluble: in n-octanol | in phosphate buffer | in water
